{"source": "patent US9399635B2", "about": "“Pyrazole derivative” (GREEN TECH CO., LTD., priority 2011, dated 2016)", "key": {"[1]": {"biological_target": "T1, recombinant human β-secretase (Homo sapiens, UniProt P56817)", "T1 construct": "purchased Invitrogen", "T1 sequence (P56817 46-501)": "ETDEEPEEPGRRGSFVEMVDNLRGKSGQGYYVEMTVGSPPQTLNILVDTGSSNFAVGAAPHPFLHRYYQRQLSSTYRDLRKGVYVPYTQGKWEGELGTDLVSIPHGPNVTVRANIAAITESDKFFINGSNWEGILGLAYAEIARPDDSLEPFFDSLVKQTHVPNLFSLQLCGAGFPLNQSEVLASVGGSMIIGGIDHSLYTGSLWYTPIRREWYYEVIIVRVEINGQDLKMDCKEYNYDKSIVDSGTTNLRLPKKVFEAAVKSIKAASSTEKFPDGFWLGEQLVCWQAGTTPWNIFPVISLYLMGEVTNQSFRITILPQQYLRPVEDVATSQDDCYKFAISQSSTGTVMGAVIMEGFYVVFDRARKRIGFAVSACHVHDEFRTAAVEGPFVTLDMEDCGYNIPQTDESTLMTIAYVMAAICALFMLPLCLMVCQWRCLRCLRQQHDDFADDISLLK", "assay": "Determination of β-secretase inhibitory activity (BACE-1 FRET assay Kit)", "format": "biochemical", "conditions": "recombinant human β-secretase, fluorescent substrate peptide, 1 hour; read-out: IC50 (μM) Test example 2 (β-secretase inhibitory activity)", "method": "Pharmacological Test Example 2: Determination of β-Secretase Inhibitory Activity\nThe β-secretase inhibitory activity was measured with BACE-1 FRET assay Kit (Invitrogen). The test compounds were prepared using DMSO at 30-fold of their final concentrations and dissolved so that the DMSO concentration would be 10%. To each of the solutions, an equal volume of a recombinant human β-secretase (1 U/mL) dissolved in the assay buffer and an equal volume of fluorescent substrate peptide (2.5 nM) were added and the solutions were left to stand for 1 hour. The fluorescence intensity was measured with a fluorescence plate reader (excitation wavelength: 545 nm; emission wavelength: 590 nm).\nThe final concentration of each compound at the time of measurement was set at 0.1, 0.3, 1, 3, and 10 μM, at 0.3, 1, 3, 10, and 30 μM, or at 1, 3, 10, 30, and 100 μM."}, "[2]": {"test_system": "Aβ 1-42 in the brain of APPswe/PS1dE9 Tg mice", "assay": "Aβ aggregation inhibitory activity and Aβ production inhibitory activity in mice with oral administration (brain Aβ 1-42 ELISA)", "format": "in vivo", "conditions": "oral 25 or 50 mg/kg bw/day, four weeks (FIG. 3)", "method": "Pharmacological test example 5: Determination of Aβ aggregation inhibitory activity and Aβ production inhibitory activity in mice with oral administration\nTo APPswe/PS1dE9 Tg mice (male, 10 to 12 months old, n=8 to 10), the compound of Example 2 was orally administered and the concentration of Aβ in the brain was measured. The administration vehicle was an 80% PEG 400 aqueous solution. The dose volume was 10 mL/kg bw/day and the dose was adjusted to be 25 mg/kg bw/day or 50 mg/kg bw/day. To Vehicle group, 10 mL/kg bw/day of an 80% PEG 400 aqueous solution was administered. Administration was performed with an oral feeding tube (Fuchigami Kikai Company) by gavage and continued for four weeks. After termination of the administration, the mice were sacrificed under pentobarbital anesthesia and the brain was harvested. The brain was homogenized after addition of a 10-fold volume of a phosphoric acid buffer (pH 7.4) and the homogenate was centrifuged at 4° C., 16,000 g for 1 hour. The centrifugal supernatant was used as a soluble protein sample. […] An amount of 100 μL of a reaction stop solution was added to stop the chromogenic reaction and the absorbance was measured at 450 nm with a microplate reader (Bio-Rad). The Aβ concentration was determined from the standard curve produced from the measured values of the standard curve dilution series."}}, "data": [{"smiles": "COc1cc(OCc2ccccn2)ccc1/C=C/c1cc(/C=C/c2ccc3cc[nH]c3c2)[nH]n1", "note": "[Example 2, 3-[(1E)-2-(1H-indol-6-yl)ethenyl]-5-[(1E)-2-[2-methoxy-4-(2-pyridylmethoxy)phenyl]ethenyl]-1H-pyrazole]", "values": [{"measurement": "IC50", "setting": "[1]", "result": 3, "unit": "µM"}, {"measurement": "amount of insoluble Aβ 1-42 in the brain", "setting": "[2]", "result": "decreased in a dose-dependent manner"}, {"measurement": "amount of soluble Aβ 1-42 in the brain", "setting": "[2]", "result": "decreased in a dose-dependent manner"}]}]}
